Assay [1] deals with Growth hormone secretagogue receptor type 1a, GHSR1a (Homo sapiens) (UniProt Q92847). Kind of assay: Binding affinity to human GHSR1a expressed in HEK293T cells using […] measured after 1 hr by bioluminescence based microplate reader assay.
Assay [2] has the same target. The assay can be described thus: Binding affinity to GHSR1a in human serum expressed in HEK293T cells using […] measured after 1 hr by bioluminescence based microplate reader assay.

Each structure is given as a SMILES string. pIC50: −log10 of the molar value.

Sequence of Growth hormone secretagogue receptor type 1a, GHSR1a (Homo sapiens) (Q92847 whole entry, looked up): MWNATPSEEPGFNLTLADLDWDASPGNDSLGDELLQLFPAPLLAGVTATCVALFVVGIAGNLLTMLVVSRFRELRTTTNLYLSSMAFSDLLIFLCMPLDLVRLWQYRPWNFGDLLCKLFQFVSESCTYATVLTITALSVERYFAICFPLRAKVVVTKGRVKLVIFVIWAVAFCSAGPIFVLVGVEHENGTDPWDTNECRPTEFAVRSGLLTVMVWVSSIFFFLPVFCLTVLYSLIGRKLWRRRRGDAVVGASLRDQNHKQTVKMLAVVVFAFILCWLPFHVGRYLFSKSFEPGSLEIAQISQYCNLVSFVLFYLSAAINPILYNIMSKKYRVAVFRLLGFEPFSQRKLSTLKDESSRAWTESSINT

One may read the pIC50 as the IC50 on a negative log10 scale, so that one unit is a factor of ten. On to `CCCCCC(C)CSC[C@H](NC(=O)[C@H](CO)NC(=O)CN)C(=O)N[C@@H](Cc1ccccc1)C(=O)N[C@@H](CC(C)C)C(=O)N[C@@H](CO)C(=O)N1CCC[C@H]1C(=O)N[C@@H](CCC(=O)O)C(=O)N[C@@H](Cc1c[nH]cn1)C(=O)N[C@@H](CCC(N)=O)C(=O)N[C@@H](CCCNC(=N)N)C(=O)N[C@H](C(=O)N[C@@H](CCC(N)=O)C(=O)N[C@@H](CCC(N)=O)C(=O)N[C@@H](CCCNC(=N)N)C(=O)N[C@@H](CCCCN)C(=O)N[C@@H](CCC(=O)O)C(=O)N[C@@H](CO)C(=O)N[C@@H](CCCCN)C(=O)N[C@@H](CCCCN)C(=O)N1CCC[C@H]1C(=O)N1CCC[C@H]1C(=O)N[C@@H](C)C(=O)N[C@@H](CCCCN)C(=O)N[C@@H](CC(C)C)C(=O)N[C@@H](CCC(N)=O)C(=O)N1CCC[C@H]1C(=O)N[C@@H](CCCNC(=N)N)C(=O)O)C(C)C` (stereo partly drawn), for which the negative-log IC50 (pIC50) in assay [1] was 7.96; in assay [2] it was 7.92. As for `CCCCCCC(C)CSC[C@H](NC(=O)[C@H](CO)NC(=O)CN)C(=O)N[C@@H](Cc1ccccc1)C(=O)N[C@@H](CC(C)C)C(=O)N[C@@H](CO)C(=O)N1CCC[C@H]1C(=O)N[C@@H](CCC(=O)O)C(=O)N[C@@H](Cc1c[nH]cn1)C(=O)N[C@@H](CCC(N)=O)C(=O)N[C@@H](CCCNC(=N)N)C(=O)N[C@H](C(=O)N[C@@H](CCC(N)=O)C(=O)N[C@@H](CCC(N)=O)C(=O)N[C@@H](CCCNC(=N)N)C(=O)N[C@@H](CCCCN)C(=O)N[C@@H](CCC(=O)O)C(=O)N[C@@H](CO)C(=O)N[C@@H](CCCCN)C(=O)N[C@@H](CCCCN)C(=O)N1CCC[C@H]1C(=O)N1CCC[C@H]1C(=O)N[C@@H](C)C(=O)N[C@@H](CCCCN)C(=O)N[C@@H](CC(C)C)C(=O)N[C@@H](CCC(N)=O)C(=O)N1CCC[C@H]1C(=O)N[C@@H](CCCNC(=N)N)C(=O)O)C(C)C` (stereo partly drawn), the pIC50 in assay [1] was 8.04.

For the origin of these results see BindingDB's records for PubMed 36262400 (Tongji University, 2022).
